For this assay, the target named is T1, hYAK3 (Homo sapiens, UniProt O43781).
T1 construct: GST (N); His6 (C); made in house; host or cells: baculovirus expression system in Sf9 cells
T1 sequence (O43781 142-526): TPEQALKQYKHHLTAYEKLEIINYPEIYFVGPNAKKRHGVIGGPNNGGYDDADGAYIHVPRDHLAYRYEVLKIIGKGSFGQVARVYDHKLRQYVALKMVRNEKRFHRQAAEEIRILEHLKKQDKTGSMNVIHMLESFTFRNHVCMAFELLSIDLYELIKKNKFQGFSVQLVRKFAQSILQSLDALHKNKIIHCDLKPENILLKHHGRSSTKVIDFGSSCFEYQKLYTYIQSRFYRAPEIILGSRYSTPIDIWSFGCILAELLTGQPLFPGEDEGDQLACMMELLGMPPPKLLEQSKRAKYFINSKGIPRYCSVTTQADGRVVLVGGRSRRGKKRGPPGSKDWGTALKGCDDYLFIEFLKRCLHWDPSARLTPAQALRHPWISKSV
Description: YAK3 Scintillation Proximity Assay using Ser164 of myelin basic protein as the phosphoacceptor (kinase assay of purified hYAK3). The following applies: purified GST-hYak3-His6; 1 μM ATP; 4 μM Ser164 peptide; 2 hours at room temperature. In kind it is biochemical. How it is done:
Substrate phosphorylation assays were carried out as follows:
YAK3 Scintillation Proximity Assays Using Ser164 of Myelin Basic Protein as the Phosphoacceptor
The source of Ser164 substrate peptide The biotinylated Ser164, S164A peptide(LGGRDSRAGS*PMARRKK-ahx-Biotin-Amide), sequence derived from the C-terminus of bovine myelin basic protein (MBP) with Ser162 substituted as Ala 162, was purchased from California Peptide Research Inc. (Napa, Calif.), and its purity was determined by HPLC. Phosphorylation occurs at position 164 (marked S* above). The calculated molecular mass of the peptide is 2166 dalton. Solid sample was dissolved at 10 mM in DMSO, aliquoted, and stored at −20 C until use. […]
Kinase assay of purified hYAK3: Assays were performed in 96 well (Costar, Catalog No.3789) or 384 well plates (Costar, Catalog No.3705). […] Compounds, titrated in DMSO, were evaluated at concentrations ranging from 50 μM to 0.2 nM. […]
The data for compound dose responses were plotted as % Inhibition, calculated with the data reduction formula 100*(1-[(U1-C2)/(C1-C2)]), versus concentration of compound, where U is the unknown value, C1 is the average control value obtained for DMSO, and C2 is the average control value obtained for 0.05M EDTA. […] The results for each compound were recorded as pIC50 calculated as follows: pIC50=−Log 10(K).
In general terms: In a scintillation proximity assay essentially only radioactivity close to the scintillant gives light.

The term IC50 denotes the concentration at which inhibition is half-maximal. A lower IC50 goes with greater potency.

For the molecule `O=C1N=C(Nc2c(Cl)cccc2Cl)S/C1=C\c1ccc2ncc(N3CCOCC3)nc2c1` [Example 1, (5Z)-2-[(2,6-Dichlorophenyl)amino]-5-{[3-(4-morpholinyl)-6-quinoxalinyl]methylidene}-1,3-thiazol-4(5H)-one], the IC50 is 1.26 nM.

(Values after patent publication US20080214455A1, “Novel Chemical Compounds” (SMITHKLINE BEECHAM CORPORATION, priority 2005, published 2008).)
